Assay results as given in patent publication US9796711B2, “Substituted pyrazolo[3,4-b]pyridin-6-carboxylic acids and method of use” (AbbVie S.àr.l., priority 2015, dated 2017).

How the values were obtained:
ΔF508-CFTR [1] = molecular target: T1, ΔF508-CFTR (Homo sapiens, UniProt P13569, DEL508-508); test: CFTR cell surface levels using HRP-tagged ΔF508-CFTR expressing CFBE cells, in the presence of a co-corrector; format: cell-based; conditions: HRP-tagged ΔF508-CFTR expressing CFBE cells, in the presence of 3 μM co-corrector; for EC50: read-out: EC50
T1 construct: host or cells: CFBE41o-, doxycycline-inducible
Procedure, shortened: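 Cells were seeded with 0.5 μg/mL doxycycline and held 68 h at 37 °C. Test compounds plus 3 μM co-corrector (final 0.1% DMSO) were then added for 20 h at 33 °C. Washed cells received HRP substrate, and luminescence was normalized between DMSO and 3 μM co-corrector controls.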

ΔF508-CFTR [2] = molecular target: T1, ΔF508-CFTR; test: CFTR cell surface levels using HRP-tagged ΔF508-CFTR expressing CFBE cells, intrinsic corrector capacity; format: cell-based; conditions: HRP-tagged ΔF508-CFTR expressing CFBE cells, intrinsic corrector capacity (no co-corrector), 33° C., 20 hours; for EC50: read-out: EC50
Procedure, shortened: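 Here the cells express ΔF508-CFTR with horseradish peroxidase inserted in extracellular loop 4, so only rescued channel at the surface gives luminescent signal. Compounds act on their own, 20 h at the reduced temperature of 33 °C; values are percent activity relative to DMSO and a 3 μM corrector.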

T1 sequence (P13569 with tags, fused parts or gaps DEL508-508): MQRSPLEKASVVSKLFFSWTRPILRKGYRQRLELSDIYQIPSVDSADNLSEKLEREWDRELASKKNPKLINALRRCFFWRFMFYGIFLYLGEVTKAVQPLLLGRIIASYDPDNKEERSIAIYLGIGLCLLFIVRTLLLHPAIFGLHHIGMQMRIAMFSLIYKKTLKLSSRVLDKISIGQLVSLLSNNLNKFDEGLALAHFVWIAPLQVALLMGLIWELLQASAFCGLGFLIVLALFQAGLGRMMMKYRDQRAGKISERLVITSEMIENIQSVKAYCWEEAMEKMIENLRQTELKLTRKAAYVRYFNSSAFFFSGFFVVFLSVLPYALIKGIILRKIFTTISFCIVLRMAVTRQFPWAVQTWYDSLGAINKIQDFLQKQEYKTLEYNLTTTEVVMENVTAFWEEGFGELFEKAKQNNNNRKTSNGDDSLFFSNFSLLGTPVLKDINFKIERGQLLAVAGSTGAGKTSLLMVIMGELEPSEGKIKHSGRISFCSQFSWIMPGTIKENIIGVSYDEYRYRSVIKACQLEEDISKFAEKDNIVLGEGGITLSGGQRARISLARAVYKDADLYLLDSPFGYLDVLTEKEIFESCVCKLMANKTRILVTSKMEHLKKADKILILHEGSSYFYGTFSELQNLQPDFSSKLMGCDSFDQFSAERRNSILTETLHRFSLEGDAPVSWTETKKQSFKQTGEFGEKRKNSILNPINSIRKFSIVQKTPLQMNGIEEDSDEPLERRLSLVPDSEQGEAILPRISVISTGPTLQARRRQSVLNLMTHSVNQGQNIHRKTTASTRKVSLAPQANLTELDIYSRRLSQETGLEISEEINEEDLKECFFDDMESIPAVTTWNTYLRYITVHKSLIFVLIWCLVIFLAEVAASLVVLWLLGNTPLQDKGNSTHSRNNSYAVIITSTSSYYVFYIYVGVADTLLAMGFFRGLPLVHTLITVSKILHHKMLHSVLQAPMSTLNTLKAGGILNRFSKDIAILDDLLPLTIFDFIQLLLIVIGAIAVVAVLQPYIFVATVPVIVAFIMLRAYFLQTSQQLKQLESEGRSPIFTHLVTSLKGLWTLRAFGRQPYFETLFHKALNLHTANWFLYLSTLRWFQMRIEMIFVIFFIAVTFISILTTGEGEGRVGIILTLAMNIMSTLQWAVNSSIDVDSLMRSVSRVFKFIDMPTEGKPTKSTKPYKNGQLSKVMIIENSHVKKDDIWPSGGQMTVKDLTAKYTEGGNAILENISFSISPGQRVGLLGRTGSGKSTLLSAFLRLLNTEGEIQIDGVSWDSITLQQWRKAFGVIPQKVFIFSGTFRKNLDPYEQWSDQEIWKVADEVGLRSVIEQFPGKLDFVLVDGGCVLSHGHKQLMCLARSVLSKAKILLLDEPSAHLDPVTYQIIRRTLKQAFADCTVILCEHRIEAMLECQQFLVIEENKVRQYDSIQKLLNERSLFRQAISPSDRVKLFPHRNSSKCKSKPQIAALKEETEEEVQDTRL

SMILES	% Activation (ΔF508-CFTR [1]) [%]	EC50 (ΔF508-CFTR [1]) [nM]	% Activation (ΔF508-CFTR [2]) [%]	EC50 (ΔF508-CFTR [2]) [nM]
O=C(O)c1cc(N2CCC(CN3CCC(F)(F)C3)CC2)c2c(C3CCC3)nn(-c3ccccc3)c2n1 [compound 828, 3-cyclobutyl-4-{4-[(3,3-difluoropyrrolidin-1-yl)methyl]piperidin-1-yl}-1-phenyl-1H-pyrazolo[3,4-b]pyridine-6-carboxylic acid]	518.35	47.9	283.5	83.2
COC1CN(CC2CCN(c3cc(C(=O)O)nc4c3c(C3CCC3)nn4-c3ccccc3)CC2)C1 [compound 829, 3-cyclobutyl-4-{4-[(3-methoxyazetidin-1-yl)methyl]piperidin-1-yl}-1-phenyl-1H-pyrazolo[3,4-b]pyridine-6-carboxylic acid]	411.7	344	170.7	381
O=C(O)c1cc(N2CCC(CN3CCCC(F)(F)C3)CC2)c2c(C3CCC3)nn(-c3ccccc3)c2n1 [compound 830, 3-cyclobutyl-4-{4-[(3,3-difluoropiperidin-1-yl)methyl]piperidin-1-yl}-1-phenyl-1H-pyrazolo[3,4-b]pyridine-6-carboxylic acid]	588.2	63.2	353.9	115
COCC1CN(CC2CCN(c3cc(C(=O)O)nc4c3c(C3CCC3)nn4-c3ccccc3)CC2)C1 [compound 831, 3-cyclobutyl-4-(4-{[3-(methoxymethyl)azetidin-1-yl]methyl}piperidin-1-yl)-1-phenyl-1H-pyrazolo[3,4-b]pyridine-6-carboxylic acid]	402.5	407	231.3	1460
O=C(O)c1cc(N2CCC(CN3CC[C@@H](F)C3)CC2)c2c(C3CCC3)nn(-c3ccccc3)c2n1 [compound 832, 3-cyclobutyl-4-(4-{[(3R)-3-fluoropyrrolidin-1-yl]methyl}piperidin-1-yl)-1-phenyl-1H-pyrazolo[3,4-b]pyridine-6-carboxylic acid]	526.6	1070	250.5	151
O=C(O)c1cc(N2CCC(CN3CC[C@H](F)C3)CC2)c2c(C3CCC3)nn(-c3ccccc3)c2n1 [compound 833, 3-cyclobutyl-4-(4-{[(3S)-3-fluoropyrrolidin-1-yl]methyl}piperidin-1-yl)-1-phenyl-1H-pyrazolo[3,4-b]pyridine-6-carboxylic acid]	443.15	142	231.9	187
O=C(O)c1cc(N2CCC(CN3CCCOCC3)CC2)c2c(C3CCC3)nn(-c3ccccc3)c2n1 [compound 834, 3-cyclobutyl-4-{4-[(1,4-oxazepan-4-yl)methyl]piperidin-1-yl}-1-phenyl-1H-pyrazolo[3,4-b]pyridine-6-carboxylic acid]	403	114	227.9	241
O=C(O)c1cc(N2CCC(CN3CC(OCC(F)F)C3)CC2)c2c(C3CCC3)nn(-c3ccccc3)c2n1 [compound 835, 3-cyclobutyl-4-(4-{[3-(2,2-difluoroethoxy)azetidin-1-yl]methyl}piperidin-1-yl)-1-phenyl-1H-pyrazolo[3,4-b]pyridine-6-carboxylic acid]	466.9	67.6	291.5	163
O=C(O)c1cc(N2CCC(CN3CC4(CCCOC4)C3)CC2)c2c(C3CCC3)nn(-c3ccccc3)c2n1 [compound 836, 3-cyclobutyl-4-{4-[(6-oxa-2-azaspiro[3.5]nonan-2-yl)methyl]piperidin-1-yl}-1-phenyl-1H-pyrazolo[3,4-b]pyridine-6-carboxylic acid]	325.3	409	137.3	486
O=C(O)c1cc(N2CCC(CN3CCN4C[C@@H](F)C[C@H]4C3)CC2)c2c(C3CCC3)nn(-c3ccccc3)c2n1 [compound 838, 3-cyclobutyl-4-(4-{[(7S,8aS)-7-fluorohexahydropyrrolo[1,2-a]pyrazin-2(1H)-yl]methyl]piperidin-1-yl)-1-phenyl-1H-pyrazolo[3,4-b]pyridine-6-carboxylic acid]	411.8	115	240.3	269
O=CN1CCCN(CC2CCN(c3cc(C(=O)O)nc4c3c(C3CCC3)nn4-c3ccccc3)CC2)CC1 [compound 839]	437.3	180	275.7	921
O=C(O)c1cc(N2CCC(CN3CCC4(CC3)COC4)CC2)c2c(C3CCC3)nn(-c3ccccc3)c2n1 [compound 840, 3-cyclobutyl-4-{4-[(2-oxa-7-azaspiro[3.5]nonan-7-yl)methyl]piperidin-1-yl}-1-phenyl-1H-pyrazolo[3,4-b]pyridine-6-carboxylic acid]	368.8	250	164.4	400
COC1CCN(CC2CCN(c3cc(C(=O)O)nc4c3c(C3CCC3)nn4-c3ccccc3)CC2)CC1 [compound 841, 3-cyclobutyl-4-{4-[(4-methoxypiperidin-1-yl)methyl]piperidin-1-yl}-1-phenyl-1H-pyrazolo[3,4-b]pyridine-6-carboxylic acid]	457.1	314	225	532
O=C(O)c1cc(N2CCC(CN3CCC4(COC4)C3)CC2)c2c(C3CCC3)nn(-c3ccccc3)c2n1 [compound 842, 3-cyclobutyl-4-{4-[(2-oxa-6-azaspiro[3.4]octan-6-yl)methyl]piperidin-1-yl}-1-phenyl-1H-pyrazolo[3,4-b]pyridine-6-carboxylic acid]	370	582	162.5	628
O=CN1CCN(CC2CCN(c3cc(C(=O)O)nc4c3c(C3CCC3)nn4-c3ccccc3)CC2)CC1 [compound 843, 3-cyclobutyl-4-{4-[(4-formylpiperazin-1-yl)methyl]piperidin-1-yl}-1-phenyl-1H-pyrazolo[3,4-b]pyridine-6-carboxylic acid]	499.3	207	264.2	366
O=C(O)c1cc(N2CCC(CN3CC4CC4C3)CC2)c2c(C3CCC3)nn(-c3ccccc3)c2n1 (stereo not shown) [compound 844, 4-{4-[(3-azabicyclo[3.1.0]hexan-3-yl)methyl]piperidin-1-yl}-3-cyclobutyl-1-phenyl-1H-pyrazolo[3,4-b]pyridine-6-carboxylic acid]	429.2	206	184.9	210
CN1C(=O)CN(CC2CCN(c3cc(C(=O)O)nc4c3c(C3CCC3)nn4-c3ccccc3)CC2)CC12COC2 [compound 845, 3-cyclobutyl-4-{4-[(5-methyl-6-oxo-2-oxa-5,8-diazaspiro[3.5]nonan-8-yl)methyl]piperidin-1-yl}-1-phenyl-1H-pyrazolo[3,4-b]pyridine-6-carboxylic acid]	499.6	1080	273.7	1470
O=C(O)c1cc(N2CCC(N3CCC(F)C3)CC2)c2c(C3CCC3)nn(-c3ccc(F)cc3)c2n1 (stereo not shown) [compound 846, 3-cyclobutyl-1-(4-fluorophenyl)-4-[4-(3-fluoropyrrolidin-1-yl)piperidin-1-yl]-1H-pyrazolo[3,4-b]pyridine-6-carboxylic acid]	495.1	968	317.9	874
N#CC1CN(C2CCN(c3cc(C(=O)O)nc4c3c(C3CCC3)nn4-c3ccc(F)cc3)CC2)C1 [compound 847, 4-[4-(3-cyanoazetidin-1-yl)piperidin-1-yl]-3-cyclobutyl-1-(4-fluorophenyl)-1H-pyrazolo[3,4-b]pyridine-6-carboxylic acid]	503.8	286	279.1	539
COC1CCN(C2CCN(c3cc(C(=O)O)nc4c3c(C3CCC3)nn4-c3ccc(F)cc3)CC2)C1 (stereo not shown) [compound 848, 3-cyclobutyl-1-(4-fluorophenyl)-4-[4-(3-methoxypyrrolidin-1-yl)piperidin-1-yl]-1H-pyrazolo[3,4-b]pyridine-6-carboxylic acid]	405.2	427	249	1200
O=C(O)c1cc(N2CCC(N3CCC(F)(F)CC3)CC2)c2c(C3CCC3)nn(-c3ccc(F)cc3)c2n1 [compound 850, 3-cyclobutyl-4-(4,4-difluoro[1,4′-bipiperidin]-1′-yl)-1-(4-fluorophenyl)-1H-pyrazolo[3,4-b]pyridine-6-carboxylic acid]	615.6	88.9	234.4	74.1
N#CC1CN(C2CCN(c3cc(C(=O)O)nc4c3c(C3CCC3)nn4-c3ccc(F)cc3)CC2)CCO1 (stereo not shown) [compound 851, 4-[4-(2-cyanomorpholin-4-yl)piperidin-1-yl]-3-cyclobutyl-1-(4-fluorophenyl)-1H-pyrazolo[3,4-b]pyridine-6-carboxylic acid]	559.8	123	342.9	244
